Experimental data: US9586896B2, “Nitroxyl donors with improved therapeutic index” (Cardioxyl Pharmaceuticals, Inc., priority 2013, dated 2017)
Values after ≈ are worked out from the molar mass of the structure shown.

Legend:
[1] = Nitroxyl production via N2O quantification (GC headspace analysis); format: physicochemical; settings: PBS, 37° C.
Excerpt: Nitrous oxide (N2O) is produced via the dimerization and dehydration of HNO, and is the most common marker for nitroxyl production (Fukuto et al., Chem. Res. Toxicol. 18:790-801 (2005)). […] Using either nitrous oxide gas or Angeli's salt (AS) as a standard, the relative amounts of N2O released from compounds of the disclosure was examined via gas chromatography (GC) headspace analysis.
A procedure for determining the relative amounts of N2O released from compounds of the disclosure is as follows. GC was performed on an Agilent gas chromatograph equipped with a split injector (10:1 splitting), microelectron capture detector, and a HP-MOLSIV 30 m×0.32 mm×25 μm molecular sieve capillary column. Helium was used as the carrier (4 mL/min) gas and nitrogen was used as the make-up (20 mL/min) gas. The injector oven and the detector oven were kept at 200° C. and 325° C., respectively. All nitrous oxide analyses were performed with the column oven held at a constant temperature of 200° C.
All gas injections were made using an automated headspace analyzer. Vial pressurization was 15 psi. The analyzer's sample oven, sampling valve, and transfer line were kept at 40° C., 45° C., and 50° C., respectively. The oven stabilization, vial pressurization, loop fill, loop equilibration, and sample injection times were 1.00 min., 0.20 min., 0.20 min., 0.05 min., and 1.00 min., respectively.
All determinations used a batch of nominal 20 mL headspace vials with volumes pre-measured for sample uniformity (actual vial volume varied by ≦2.0% relative standard deviation (n=6)). The average vial volume for the batch was determined from six randomly-selected vials by calculating the weight difference between the capped and sealed empty (i.e., air-filled) vial and the capped and sealed deionized water-filled vial using the known density of deionized water, then averaging. Blanks were prepared by sealing and capping two vials then purging each for 20 seconds with a gentle argon stream. […]

[2] = Solubility in water in the absence of excipients; format: physicochemical; settings: for solubility thermodynamic: thermodynamic from solid, read-out: equilibrium solubility in water
Procedure: Additionally, a sample of the compound of formula (1) was prepared in water to determine the approximate solubility of the compound in the absence of excipients (e.g., CAPTISOL®). A concentration of approximately 300 mg/mL was achieved, not accounting for the volume contribution of the compound. The pH of the sample was determined to be 2.8, which was adjusted to the target of 4.0 using 0.1 N NaOH. Upon pH adjustment, precipitation of a small amount of solid was observed. […] A similar analysis was performed for the compound of formula (2). The compound of formula (2) has a solubility of approximately 10 mg/mL.

Structure (SMILES)	Relative N2O Yield (90 minute incubation) [1] [%]	Relative N2O Yield (360 minute incubation) ([1]; 360 minute incubation) [%]	solubility thermodynamic ([2]; water, no excipients) [mg/mL]	pH of the sample in water ([2]; approximately 300 mg/mL in water before pH adjustment)	solubility ([2]; water without excipients, pH 2.8, thermodynamic from solid, water, no excipients, not accounting for the volume contribution of the compound, read-out: concentration achieved in water) [mg/mL]	observed solution concentration by HPLC ([2]; water, after pH adjustment to 4.0 with 0.1 N NaOH) [mg/mL]
CS(=O)(=O)c1cccc(S(=O)(=O)NO)c1 [(2), N-Hydroxy-3-methanesulfonylbenzene-1-sulfonamide]	82	94	~10 (≈ 39.8 mM)	–	–	–
Cc1ccc(S(=O)(=O)NO)o1 [Compound (1), N-Hydroxy-5-methylfuran-2-sulfonamide]	52	–	> 100	2.8	≥ 300	268
